Laboratory results from patent US20070154567A1, “Use of mercury to treat cancer” (priority 2006, published 2007).
Values joined by “and” are separate entries in the source; they are usually repeats but may differ in a detail not shown here. Equal values may be shown once.

System: metastatic hepatocellular carcinoma
Assay: Oral inorganic mercury (II) treatment of a pet Husky after tumor removal: blood data and clinical follow-up
Format: in vivo, dog
Design: Corrected Calcium / MCV / MCH / MCHC / Neutrophils, absolute / Bands / Lymphocytes, absolute / Monocytes, absolute / Eosinophils, absolute / Basophils, absolute: unit not given here
Experimental: A 10 yrs old female Husky, 54 lbs was diagnosed with metastatic hepatocellular carcinoma. The tumor was surgically removed prior to treatment. The prognosis after the surgery was poor with 1-2 months of life expectancy.
The 90-day inorganic mercury (II) treatment consisted of two 30-day treatment courses and one 30-day interval period. The formulation contained 1 mM mercury acetate in 20 mM sodium acetate buffer, pH 4.5, with 100 mM sucrose and 150 mM sodium chloride additives. The formulation was introduced orally to the pet three times a day 1 hour before food at 0.5 micromole Hg^2+/kg/day. In the beginning of treatment the dog had high levels of alkaline phosphatase (ALP) and alanine transferase (ALT), two liver enzymes known to be associated with liver tumor progression (de Oliveira e Silva et al., Arq Gastroenterol. 1990, 27(2):83-94). […] On Day 3 ALP and ALT were 1950 U/L and 119 U/L, respectively. On day 30 ALP dropped to 495 U/L, whereas ALT was decreased to 27 U/L. Decreases in ALP and ALT levels were correlated well with the improvement of dog's general condition during the first treatment course. During the second treatment course, according to owner's and veterinarian's notes, the dog continued to show improvement and at the end of the treatment period it acted as a healthy dog. Unfortunately, the owner chose not to take blood tests after day 30.

Compound: CC(=O)[O-].CC(=O)[O-].[Hg+2] [inorganic mercury (II), mercury acetate]
- health / cancer status of the dog (10 months after treatment): remains in good health and is apparently cancer-free
- ALT (SGPT) (Day 3): 119 U/L and 119 (H) U/L
- AST (SGOT) (Day 3): 30 U/L
- Albumin (Day 3): 3.1 g/dL
- Albumin/Globulin Ratio (Day 3): 1.1
- Alkaline Phosphatase (ALP) (Day 3): 1950 U/L and 1950 (H) U/L
- Amylase (Day 3): 369 U/L
- BUN/Creatinine Ratio (Day 3): 17
- Bands (Day 3): 0
- Basophils, absolute (Day 3): 0
- CPK (Day 3): 161 U/L
- Calcium (Day 3): 9.4 mg/dL
- Chloride (Day 3): 114 mE/L
- Cholesterol (Day 3): 250 mg/dL
- Corrected Calcium (Day 3): 9.8
- Creatinine (Day 3): 1.0 mg/dL
- Eosinophils, (%) (Day 3): 7%
- Eosinophils, absolute (Day 3): 812
- Globulin (Day 3): 2.8 g/dL
- Glucose (Day 3): 94 mg/dL
- Hematocrit (Day 3): 43.1%
- Hemoglobin (Day 3): 14.7 g/dL
- Lymphocytes, (%) (Day 3): 18%
- Lymphocytes, absolute (Day 3): 2088
- MCH (Day 3): 22.3
- MCHC (Day 3): 34.1
- MCV (Day 3): 65
- Monocytes, (%) (Day 3): 4%
- Monocytes, absolute (Day 3): 464
- Neutrophils, (%) (Day 3): 71%
- Neutrophils, absolute (Day 3): 8236
- Phosphorus (Day 3): 3.8 mg/dL
- Platelet count (Day 3): 394 10^3/microl
- Potassium (Day 3): 4.5 mE/L
- RBC (Day 3): 6.59 10^6/microl
- Sodium (Day 3): 149 mE/L
- Total Billirubin (Day 3): 0.1 mg/dL
- Total Protein (Day 3): 5.9 g/dL
- Urea Nitrogen (Day 3): 17 mg/dL
- WBC (Day 3): 11.6 10^3/microl
- ALT (SGPT) (Day 9): 51 U/L
- AST (SGOT) (Day 9): 18 U/L
- Albumin (Day 9): 3.2 g/dL
- Albumin/Globulin Ratio (Day 9): 1.1
- Alkaline Phosphatase (ALP) (Day 9): 1368 (H) U/L
- Amylase (Day 9): 348 U/L
- BUN/Creatinine Ratio (Day 9): 8
- Bands (Day 9): 0
- Basophils, absolute (Day 9): 0
- CPK (Day 9): 119 U/L
- Calcium (Day 9): 9.8 mg/dL
- Chloride (Day 9): 115 mE/L
- Cholesterol (Day 9): 237 mg/dL
- Corrected Calcium (Day 9): 10.1
- Creatinine (Day 9): 1.0 mg/dL
- Eosinophils, (%) (Day 9): 3%
- Eosinophils, absolute (Day 9): 405
- Globulin (Day 9): 3.0 g/dL
- Glucose (Day 9): 93 mg/dL
- Hematocrit (Day 9): 53.1%
- Hemoglobin (Day 9): 17.4 g/dL
- Lymphocytes, (%) (Day 9): 15%
- Lymphocytes, absolute (Day 9): 2025
- MCH (Day 9): 21.8
- MCHC (Day 9): 32.8
- MCV (Day 9): 67
- Monocytes, (%) (Day 9): 3%
- Monocytes, absolute (Day 9): 405
- Neutrophils, (%) (Day 9): 79%
- Neutrophils, absolute (Day 9): 10665
- Phosphorus (Day 9): 3.8 mg/dL
- Platelet count (Day 9): 406 (H) 10^3/microl
- Potassium (Day 9): 4.7 mE/L
- RBC (Day 9): 7.97 10^6/microl
- Sodium (Day 9): 152 mE/L
- Total Billirubin (Day 9): 0.1 mg/dL
- Total Protein (Day 9): 6.2 g/dL
- Urea Nitrogen (Day 9): 8 mg/dL
- WBC (Day 9): 13.5 10^3/microl
- ALT (SGPT) (Day 30): 27 U/L
- AST (SGOT) (Day 30): 26 U/L
- Albumin (Day 30): 3.4 g/dL
- Albumin/Globulin Ratio (Day 30): 1.1
- Alkaline Phosphatase (ALP) (Day 30): 495 U/L and 495 (H) U/L
- Amylase (Day 30): 349 U/L
- BUN/Creatinine Ratio (Day 30): 16
- Bands (Day 30): 0
- Basophils, absolute (Day 30): 0
- CPK (Day 30): 488 U/L
- Calcium (Day 30): 10.3 mg/dL
- Chloride (Day 30): 117 mE/L
- Cholesterol (Day 30): 248 mg/dL
- Corrected Calcium (Day 30): 10.4
- Creatinine (Day 30): 0.9 mg/dL
- Eosinophils, (%) (Day 30): 6%
- Eosinophils, absolute (Day 30): 504
- Globulin (Day 30): 3.0 g/dL
- Glucose (Day 30): 113 mg/dL
- Hematocrit (Day 30): 50.3%
- Hemoglobin (Day 30): 15.8 g/dL
- Lymphocytes, (%) (Day 30): 17%
- Lymphocytes, absolute (Day 30): 1428
- MCH (Day 30): 20.9
- MCHC (Day 30): 31.4
- MCV (Day 30): 66
- Monocytes, (%) (Day 30): 4%
- Monocytes, absolute (Day 30): 336
- Neutrophils, (%) (Day 30): 73%
- Neutrophils, absolute (Day 30): 6132
- Phosphorus (Day 30): 3.3 mg/dL
- Platelet count (Day 30): 385 10^3/microl
- Potassium (Day 30): 4.1 mE/L
- RBC (Day 30): 7.57 10^6/microl
- Sodium (Day 30): 152 mE/L
- Total Billirubin (Day 30): 0.1 mg/dL
- Total Protein (Day 30): 6.4 g/dL
- Urea Nitrogen (Day 30): 14 mg/dL
- WBC (Day 30): 8.4 10^3/microl
- levels of ALP and ALT (during the first treatment course): dramatically decreased
